In patent US20220079909A1, “Food Supplement For Improving Sports Performance” (NUTRIBAM BV, priority 2019, published 2022):

Tested on: male subjects
Experiment: Synergetic efficiency of sulphoraphane and curcumin in four groups: training diary, HRV, RHR (Example 4)
Type: in vivo, human
Conditions: 5-day period; for muscle pain and fatigue during the day (training diary): oral daily dose, compared to the negative control (Group nC, Gatorade powder); for HRV and RHR indices (overtraining): compared to the negative control (Group nC)
Experimental: The synergetic efficiency of a composition comprising both sulphoraphane and curcumin, was analysed. This analysis was realized, for monitoring the performances and recuperation of subjects, after doing a daily physical activity. The monitoring was done by means of a training diary which had to be completed three times a day, as well as by measuring the 'heart rate variability' (HRV), and the 'rest hear rate' (RHR) of these subjects. The HRV was analysed under controlled laboratory circumstances, before and after doing the prescribed daily physical activity. Analogously, the RHR was analysed under controlled laboratory circumstances, before and after doing the prescribed daily physical activity. The training diary was made up of a questionnaire, which needed to be completed by means of a scale of five (scale of […]). Questions were asked about possible muscle pain of the subjects, but also for example their energy level during the different moments of the day. 37 male subjects were selected to take part in the experiment. Their physical characteristics were as follows (average and SD): age 27.6 SD:1.6 years; weight 79.3 SD:2.1 kg; length 184 SD:3 cm. The subjects were divided into 4 groups: a group receiving only curcumin (Group C, n=10) (daily dose of 50 mg), a group receiving only sulphoraphane (Group S, n=10) (daily dose 25 mg), a group receiving both curcumin and sulphoraphane (Group C+S, n=10) (the same concentrations as the controls), and finally, a negative control was included in the experiment, it comprises a group receiving a similar dose of placebo, thereto Gatorade powder was used (Group nC, n=7). Each subject was asked to take a prescribed daily dose for five successive days. Each dose was dissolved in hot water. During this period, the subjects also had to follow a similar protein diet. The whole experiment was divided into 4 time periods, here, the different groups were tested successively. Between the different time periods, a two-week period was provided in which no experiment was carried out. The different compositions were administered orally every day in the form of a powder or dispersed in a drink. The daily dose of this powder for Group C comprised […] and 950 mg of Gatorade powder. The daily dose of this powder for Group S comprised […] and 950 mg of Gatorade powder. The daily dose of this powder for Group C+S comprised 25 mg of sulphoraphane, 50 mg of curcumin and 950 mg of Gatorade powder. The daily dose of this powder for Group nC comprised 1000 mg of Gatorade powder.

## COc1cc(/C=C/C(=O)CC(=O)/C=C/c2ccc(O)c(OC)c2)ccc1O [Group C, curcumin]
  muscle pain and fatigue during the day (training diary): less muscle pain and fatigue
  HRV and RHR indices (overtraining): will probably overtrain less

## C[S+]([O-])CCCCN=C=S (stereo not shown) [Group S, 1-isothiocyanato-4-methyl sulfinyl butane]
  muscle pain and fatigue during the day (training diary): less muscle pain and fatigue
  HRV and RHR indices (overtraining): will probably overtrain less
